{"source": "patent US20110209228A1", "about": "“METHOD OF TREATMENT USING ANTIMICROBIAL COMPOSITION” (priority 2008, published 2011)", "key": {"[1]": {"test_system": "E. coli DH5α", "assay": "microbroth dilution method, peptide and antibiotic combination", "type": "cell-based", "conditions": "tetracycline or chloramphenicol, E. coli DH5α", "experimental": "To determine whether or not antimicrobial peptides as described herein act in a synergistic manner with antibiotic compounds, a microbroth dilution method was performed against E. coli DH5α performed according to the guidelines of the National Committee for Clinical Laboratory Standards."}, "[2]": {"test_system": "P. multicoda"}, "[3]": {"test_system": "B. bronchiseptica"}, "[4]": {"test_system": "S. uberis", "conditions": "both high and low salt concentrations"}, "[5]": {"test_system": "Candida albicans (ATCC 753)"}, "[6]": {"test_system": "milk proteases", "assay": "Western blotting of CHO cell extracts incubated in bovine milk", "conditions": "CHO cell extract, 2 hr", "experimental": "Western blotting of cell lysates was performed according to standard procedures to confirm expression of peptides in mammalian cells. Briefly, cell extracts and culture supernatants were obtained from CHO cells transfected with the vectors pCMV-SPORT6-AGG01 and pCMV-SPORT6-AGG02, resolved in 18% (w/v) SDS/polyacrylamide electrophoresis gels, transferred by electroblotting onto nitrocellulose membrane and either stained in Ponceau S or probed with polyclonal antisera. In a further example, cell extracts were incubated in bovine milk for 2 hrs prior to their preparation for electrophoresis, to determine stability in milk. Control samples comprises non-transfected CHO cell extracts and supernatants. Membranes were developed using polyclonal rabbit anti-mAGG01 serum that had been produced according to standard procedures, by immunizing rabbits with synthetic peptide (i.e., SEQ ID NO: 7)."}, "[7]": {"test_system": "H. somnus"}, "[8]": {"test_system": "S. epidermis", "conditions": "for activity against isolates (in words): S. epidermis otitis externa isolates"}, "[9]": {"test_system": "Staphylococcus aureus (ATCC 25923)"}, "[10]": {"test_system": "S. aureus", "conditions": "for activity against isolates (in words): S. aureus otitis externa isolates"}, "[11]": {"test_system": "A. pleuropneumoniae"}, "[12]": {"test_system": "P. haemolytica"}, "[13]": {"test_system": "S. schleiferi", "conditions": "for activity against isolates (in words): S. schleiferi otitis externa isolates"}, "[14]": {"assay": "bioactivity of peptides in milk", "conditions": "200 μg/ml, 37° C., 30 or 60 min, data not shown"}, "[15]": {"assay": "heat resistance of antimicrobial peptides", "conditions": "200 μg/ml; for antimicrobial bioactivity in phosphate buffer following heat treatment (in words): 10 mM phosphate buffer, up to 56° C. 30 min or 70° C. 15 min; for bioactivity in pasteurized milk following heat treatment (in words): pasteurised milk, up to 68° C. 30 min or 71.7° C. 20 sec, data not shown"}, "[16]": {"test_system": "lactobacilli", "assay": "activity against lactobacilli (dairy starter culture)", "type": "cell-based", "conditions": "dairy starter culture comprising lactobacilli", "text": "In separate experiments, the peptide AGG01 (SEQ ID NO: 7) or AG002 (SEQ ID NO: 8) is shown to be suitable for use in a dairy starter culture comprising lactobacilli, especially one or more Lactis spp., in particular one or more organisms selected individually or collectively from the group consisting of: L. helveticus, L. acidophilus, L. lactis, L. bugaricus and L. citrovorum, and especially L. acidophilus."}, "[17]": {"test_system": "E. coli"}, "[18]": {"test_system": "Pseudomonas aeruginosa", "conditions": "for activity against isolates (in words): Pseudomonas aeruginosa otitis externa isolates"}, "[19]": {"test_system": "S. suis"}, "[20]": {"test_system": "S. choleraesuis"}, "[21]": {"test_system": "S. pseudointermedin", "conditions": "for activity against isolates (in words): S. pseudointermedin otitis externa isolates"}, "[22]": {"test_system": "Streptococcus agalactiae (ATCC 12927)"}, "[23]": {"test_system": "all microorganisms tested", "conditions": "for antimicrobial activity against pathogens that cause mastitis (in words): S. uberis, E. coli, S. aureus and S. agalactiae"}, "[24]": {"test_system": "Salmonella choleraesuis (ATCC 14028)"}, "[25]": {"test_system": "Streptococcus equi equi (ATCC 9527)"}}, "note": "Ends that are not written are not given here.", "data": [{"substance": "KRGFGKKLRKRLKKFRNSIKKRLKNFNVVIPIPLP-NH2 [SEQ ID NO: 7]", "values": [{"measurement": "synergy with antibiotics (in words)", "setting": "[1]", "value": "act synergistically"}, {"measurement": "MIC", "setting": "[2]", "value": 16, "unit": "µg/mL"}, {"measurement": "MIC", "setting": "[3]", "value": "1 to 2", "unit": "µg/mL"}, {"measurement": "activity against isolates (in words)", "setting": "[3]; B. bronchiseptica BRD/SRD isolates", "value": "especially strong activity"}, {"measurement": "inhibiting growth of and/or killing S. uberis (in words)", "setting": "[4]", "value": "capable of inhibiting growth of and/or killing S. uberis"}, {"measurement": "MIC", "setting": "[5]", "value": "5.48 ± 0.16", "unit": "µg/mL"}, {"measurement": "presence of peptide following incubation with bovine milk (Western blot, in words)", "setting": "[6]", "value": "present"}, {"measurement": "MIC", "setting": "[7]", "value": 16, "unit": "µg/mL"}, {"measurement": "activity against isolates (in words)", "setting": "[7]; H. somnus BRD/SRD isolates", "value": "weaker activity"}, {"measurement": "MIC", "setting": "[8]", "value": 1, "unit": "µg/mL"}, {"measurement": "activity against isolates (in words)", "setting": "[8]", "value": "especially strong activity"}, {"measurement": "MIC", "setting": "[9]", "value": "5.72 ± 0.37", "unit": "µg/mL"}, {"measurement": "MIC", "setting": "[10]", "value": 2, "unit": "µg/mL"}, {"measurement": "activity against isolates (in words)", "setting": "[10]", "value": "especially strong activity"}, {"measurement": "MIC", "setting": "[11]", "value": 8, "unit": "µg/mL"}, {"measurement": "activity against isolates (in words)", "setting": "[11]; A. pleuropneumoniae BRD/SRD isolates", "value": "Intermediate activity"}, {"measurement": "MIC", "setting": "[12]", "value": "1 to 16", "unit": "µg/mL"}, {"measurement": "activity against isolates (in words)", "setting": "[12]; P. haemolytica BRD/SRD isolates", "value": "possibly also against P. haemolytica"}, {"measurement": "MIC", "setting": "[13]", "value": "2 to 4", "unit": "µg/mL"}, {"measurement": "activity against isolates (in words)", "setting": "[13]", "value": "especially strong activity"}, {"measurement": "antimicrobial bioactivity in fresh milk (in words)", "setting": "[14]", "value": "retained"}, {"measurement": "antimicrobial bioactivity in pasteurized milk (in words)", "setting": "[14]", "value": "slightly reduced"}, {"measurement": "antimicrobial bioactivity in phosphate buffer following heat treatment (in words)", "setting": "[15]", "value": "retain their antimicrobial bioactivity"}, {"measurement": "bioactivity in pasteurized milk following heat treatment (in words)", "setting": "[15]", "value": "active in pasteurized milk, even following heat treatment"}, {"measurement": "activity against lactobacilli (in words)", "setting": "[16]", "value": "low activity against lactobacilli"}, {"measurement": "MIC", "setting": "[17]", "value": "1 to 8", "unit": "µg/mL"}, {"measurement": "activity against isolates (in words)", "setting": "[17]; E. coli BRD/SRD isolates", "value": "especially strong activity"}, {"measurement": "MIC", "setting": "[18]", "value": "2 to 4", "unit": "µg/mL"}, {"measurement": "activity against isolates (in words)", "setting": "[18]", "value": "Strong antimicrobial activity"}, {"measurement": "MIC", "setting": "[19]", "value": "16 to 32", "unit": "µg/mL"}, {"measurement": "activity against isolates (in words)", "setting": "[19]; S. suis BRD/SRD isolates", "value": "weaker activity"}, {"measurement": "MIC", "setting": "[20]", "value": "4 to 8", "unit": "µg/mL"}, {"measurement": "MIC", "setting": "[21]", "value": "1 to 2", "unit": "µg/mL"}, {"measurement": "activity against isolates (in words)", "setting": "[21]", "value": "especially strong activity"}, {"measurement": "MIC", "setting": "[22]", "value": 3.81, "unit": "µg/mL"}, {"measurement": "antimicrobial activity against pathogens that cause mastitis (in words)", "setting": "[23]", "value": "exhibited antimicrobial activity"}, {"measurement": "MIC, active against all microorganisms tested", "setting": "[23]; summary of Table 1", "value": "less than 10 μg/ml"}]}, {"substance": "KRGLWESLKRKATKLGDDIRNTLRNFKIKFPVPRQ-NH2 [SEQ ID NO: 8]", "values": [{"measurement": "synergy with antibiotics (in words)", "setting": "[1]", "value": "act synergistically"}, {"measurement": "MIC", "setting": "[2]", "value": "8 to 32", "unit": "µg/mL"}, {"measurement": "MIC", "setting": "[3]", "value": 32, "unit": "µg/mL"}, {"measurement": "MIC", "setting": "[5]", "value": "10.01 ± 0.47", "unit": "µg/mL"}, {"measurement": "MIC", "setting": "[7]", "value": 32, "unit": "µg/mL"}, {"measurement": "MIC", "setting": "[8]", "value": 2, "unit": "µg/mL"}, {"measurement": "activity against isolates (in words)", "setting": "[8]", "value": "especially strong activity"}, {"measurement": "MIC", "setting": "[9]", "value": "5.44 ± 0.49", "unit": "µg/mL"}, {"measurement": "MIC", "setting": "[10]", "value": 4, "unit": "µg/mL"}, {"measurement": "activity against isolates (in words)", "setting": "[10]", "value": "especially strong activity"}, {"measurement": "MIC", "setting": "[11]", "value": 16, "unit": "µg/mL"}, {"measurement": "MIC", "setting": "[12]", "value": "4 to 64", "unit": "µg/mL"}, {"measurement": "MIC", "setting": "[24]", "value": "9.32 ± 0.38", "unit": "µg/mL"}, {"measurement": "MIC", "setting": "[13]", "value": "2 to 4", "unit": "µg/mL"}, {"measurement": "activity against isolates (in words)", "setting": "[13]", "value": "especially strong activity"}, {"measurement": "antimicrobial bioactivity in fresh milk (in words)", "setting": "[14]", "value": "reduced or inhibited"}, {"measurement": "antimicrobial bioactivity in pasteurized milk (in words)", "setting": "[14]", "value": "reduced or inhibited"}, {"measurement": "antimicrobial bioactivity in phosphate buffer following heat treatment (in words)", "setting": "[15]", "value": "retain their antimicrobial bioactivity"}, {"measurement": "bioactivity in pasteurized milk following heat treatment (in words)", "setting": "[15]", "value": "reduced or inhibited"}, {"measurement": "activity against lactobacilli (in words)", "setting": "[16]", "value": "low activity against lactobacilli"}, {"measurement": "MIC", "setting": "[17]", "value": "8 to 32", "unit": "µg/mL"}, {"measurement": "MIC", "setting": "[25]", "value": "4.85 ± 0.35", "unit": "µg/mL"}, {"measurement": "MIC", "setting": "[18]", "value": "8 to 32", "unit": "µg/mL"}, {"measurement": "activity against isolates (in words)", "setting": "[18]", "value": "slightly weaker activity"}, {"measurement": "MIC", "setting": "[19]", "value": "4 to 8", "unit": "µg/mL"}, {"measurement": "MIC", "setting": "[20]", "value": ">64", "unit": "µg/mL"}, {"measurement": "MIC", "setting": "[21]", "value": 1, "unit": "µg/mL"}, {"measurement": "activity against isolates (in words)", "setting": "[21]", "value": "especially strong activity"}, {"measurement": "MIC", "setting": "[22]", "value": 1.2, "unit": "µg/mL"}, {"measurement": "antimicrobial activity against pathogens that cause mastitis (in words)", "setting": "[23]", "value": "has antimicrobial activity"}]}]}
